From publication PMC6013247, “Preclinical characterization of INCB053914, a novel pan-PIM kinase inhibitor, alone and in combination with anticancer agents, in models of hematologic malignancies” (PLoS ONE, 2018) come the findings set out here.

A word on the IC50: it is the concentration needed to halve the response being measured.

The test system of assay [1] is PIM2 expression in KG-1a, Pfeiffer and KMS-12-PE cells. The experiment in a line: Western blot of PIM2 expression in cell lines. The note with it: KG-1a (AML). It is filed as cell-based. (Immunoblotting shows a protein as a band on a membrane.)
A further assay concerns the target CHEK2 (Homo sapiens, UniProt O96017). The assay can be described thus: Kinase selectivity panel. It is filed as biochemical. The conditions noted are these: [ATP] = 1 mM.
A further assay concerns the target SYK (Homo sapiens, UniProt P43405). The experiment in a line: Kinase selectivity panel. It is filed as biochemical. The note with it: [ATP] = 1 mM.
Another assay has as its system INA-6 cells. The assay can be described thus: STAT3(Y705) and PIM kinase substrate phosphorylation in INA-6 cells in culture. It is filed as cell-based. The conditions noted are these: INA-6 cells treated for 24 hours in culture. Here is the method:
Fig S1. Effects of INCB053914 on STAT3(Y705) and PIM kinase substrate phosphorylation in INA-6 cells treated for 24 hours in culture.

The next assay concerns the target RET (Homo sapiens, UniProt P07949). The experiment in a line: Kinase selectivity panel. It is filed as biochemical. The note with it: [ATP] = 1 mM.
Another assay deals with LOK (Homo sapiens, UniProt O94804). The assay can be described thus: Kinase selectivity panel. The note with it: [ATP] = 1 mM. It is filed as biochemical.
A further assay deals with CHEK1 (Homo sapiens, UniProt O14757). The experiment in a line: Kinase selectivity panel. It is filed as biochemical. The conditions noted are these: [ATP] = 1 mM.
The target of another assay is EGFR (Homo sapiens, UniProt P00533). The assay can be described thus: Kinase selectivity panel. It is filed as biochemical. The note with it: [ATP] = 1 mM.
Assay [2] relates to phosphorylation of BAD in KMS-12-BM cells. The experiment in a line: pBAD S112 ELISA in cells. It is filed as cell-based. The note with it: Homo sapiens, 2.5 hours, RPMI + 10% FBS, read-out: mean (± SD) IC50, pBAD inhibition. Here is the method: (§1) The effect of INCB053914 on the level of pBAD was further investigated in KMS-12-BM and MOLM-16 cells, which were suspended in RPMI + 10% fetal bovine serum (FBS) and seeded into 96-well v-bottom polypropylene plates (Greiner, Munroe, North Carolina; 4 × 10^5 cells/well/100 μl) in the presence of 5 μl INCB053914 at a final concentration range of 0.1 nM to 1,000 nM. After 2.5 hours at 37°C and 5% CO2, the cells were lysed in 100 μl of cell extraction buffer (Cell Signaling Technology) containing phenylmethane sulfonyl fluoride, Halt^TM phosphatase, and protease inhibitors (Thermo Fisher Scientific, Waltham, Massachusetts; Calbiochem). The concentration of pBAD protein in the cell lysates was quantified using a Human pBAD S112 ELISA Kit (Cell Signaling Technology).
(ELISA stands for enzyme-linked immunosorbent assay.)

The subject of assay [3] is phosphorylation of BAD in MOLM-16 cells. The experiment in a line: pBAD S112 ELISA in cells. It is filed as cell-based. The conditions noted are these: Homo sapiens, MOLM16, 2.5 hours, RPMI + 10% FBS, read-out: mean (± SD) IC50, pBAD inhibition. Here is the method:
as §1

For the next assay, the target named is SGK2 (Homo sapiens, UniProt Q9HBY8). The experiment in a line: Kinase selectivity panel. It is filed as biochemical. The conditions noted are these: [ATP] = 1 mM.
Assay [4] relates to panel of more than 50 kinases. The note with it: except for RSK2. Here is the method:
S1 Table. Selectivity of INCB053914 for PIM kinases compared with 56 kinases representative of the kinome [ATP] = 1 mM.

The next assay concerns the target AURKA (Homo sapiens, UniProt O14965). The experiment in a line: Kinase selectivity panel. It is filed as biochemical. The conditions noted are these: [ATP] = 1 mM.
Another assay has as its target CAMK2D (Homo sapiens, UniProt Q13557). The experiment in a line: Kinase selectivity panel. It is filed as biochemical. The note with it: [ATP] = 1 mM.

Structures are written as SMILES. A value given as a limit tells only on which side of the number the result lay.

CHEK2, sequence (O96017 whole entry): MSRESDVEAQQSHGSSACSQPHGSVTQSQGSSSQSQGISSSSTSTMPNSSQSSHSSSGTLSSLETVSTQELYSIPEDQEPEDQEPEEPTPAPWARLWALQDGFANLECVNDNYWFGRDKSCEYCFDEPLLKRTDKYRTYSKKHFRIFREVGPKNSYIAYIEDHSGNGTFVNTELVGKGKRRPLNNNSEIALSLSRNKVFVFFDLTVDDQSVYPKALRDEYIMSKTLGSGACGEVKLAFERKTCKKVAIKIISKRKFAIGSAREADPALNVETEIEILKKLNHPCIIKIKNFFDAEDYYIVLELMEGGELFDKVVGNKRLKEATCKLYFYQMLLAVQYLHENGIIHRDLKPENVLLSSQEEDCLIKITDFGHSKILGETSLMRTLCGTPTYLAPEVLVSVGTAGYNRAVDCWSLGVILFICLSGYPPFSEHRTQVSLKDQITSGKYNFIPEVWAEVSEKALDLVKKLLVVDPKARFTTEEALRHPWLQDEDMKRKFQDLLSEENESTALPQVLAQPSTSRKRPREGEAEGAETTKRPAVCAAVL
AURKA, sequence (O14965 whole entry): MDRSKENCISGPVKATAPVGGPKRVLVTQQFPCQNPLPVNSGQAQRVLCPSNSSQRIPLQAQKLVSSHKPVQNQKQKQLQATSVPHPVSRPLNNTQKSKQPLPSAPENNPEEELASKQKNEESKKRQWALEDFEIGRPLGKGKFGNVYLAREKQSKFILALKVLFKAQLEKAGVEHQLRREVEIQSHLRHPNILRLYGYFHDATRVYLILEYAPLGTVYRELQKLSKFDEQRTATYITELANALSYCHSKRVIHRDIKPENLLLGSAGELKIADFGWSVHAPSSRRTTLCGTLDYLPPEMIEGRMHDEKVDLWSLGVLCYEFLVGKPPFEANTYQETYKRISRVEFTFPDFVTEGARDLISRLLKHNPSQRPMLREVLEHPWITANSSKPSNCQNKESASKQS
CHEK1, sequence (O14757 whole entry): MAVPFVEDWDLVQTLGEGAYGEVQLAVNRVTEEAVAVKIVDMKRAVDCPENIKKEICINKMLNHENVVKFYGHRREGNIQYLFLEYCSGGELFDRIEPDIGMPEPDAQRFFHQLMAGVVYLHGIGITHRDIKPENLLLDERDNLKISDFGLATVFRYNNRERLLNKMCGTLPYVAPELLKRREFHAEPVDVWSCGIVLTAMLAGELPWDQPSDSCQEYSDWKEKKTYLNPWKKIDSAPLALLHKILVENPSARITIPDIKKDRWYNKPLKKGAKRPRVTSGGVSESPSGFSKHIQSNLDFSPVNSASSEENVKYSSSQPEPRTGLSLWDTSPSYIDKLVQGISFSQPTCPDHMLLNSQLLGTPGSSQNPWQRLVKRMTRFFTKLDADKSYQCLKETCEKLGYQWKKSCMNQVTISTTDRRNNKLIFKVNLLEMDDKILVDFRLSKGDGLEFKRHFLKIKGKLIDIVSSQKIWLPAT
EGFR, sequence (P00533 25-1210): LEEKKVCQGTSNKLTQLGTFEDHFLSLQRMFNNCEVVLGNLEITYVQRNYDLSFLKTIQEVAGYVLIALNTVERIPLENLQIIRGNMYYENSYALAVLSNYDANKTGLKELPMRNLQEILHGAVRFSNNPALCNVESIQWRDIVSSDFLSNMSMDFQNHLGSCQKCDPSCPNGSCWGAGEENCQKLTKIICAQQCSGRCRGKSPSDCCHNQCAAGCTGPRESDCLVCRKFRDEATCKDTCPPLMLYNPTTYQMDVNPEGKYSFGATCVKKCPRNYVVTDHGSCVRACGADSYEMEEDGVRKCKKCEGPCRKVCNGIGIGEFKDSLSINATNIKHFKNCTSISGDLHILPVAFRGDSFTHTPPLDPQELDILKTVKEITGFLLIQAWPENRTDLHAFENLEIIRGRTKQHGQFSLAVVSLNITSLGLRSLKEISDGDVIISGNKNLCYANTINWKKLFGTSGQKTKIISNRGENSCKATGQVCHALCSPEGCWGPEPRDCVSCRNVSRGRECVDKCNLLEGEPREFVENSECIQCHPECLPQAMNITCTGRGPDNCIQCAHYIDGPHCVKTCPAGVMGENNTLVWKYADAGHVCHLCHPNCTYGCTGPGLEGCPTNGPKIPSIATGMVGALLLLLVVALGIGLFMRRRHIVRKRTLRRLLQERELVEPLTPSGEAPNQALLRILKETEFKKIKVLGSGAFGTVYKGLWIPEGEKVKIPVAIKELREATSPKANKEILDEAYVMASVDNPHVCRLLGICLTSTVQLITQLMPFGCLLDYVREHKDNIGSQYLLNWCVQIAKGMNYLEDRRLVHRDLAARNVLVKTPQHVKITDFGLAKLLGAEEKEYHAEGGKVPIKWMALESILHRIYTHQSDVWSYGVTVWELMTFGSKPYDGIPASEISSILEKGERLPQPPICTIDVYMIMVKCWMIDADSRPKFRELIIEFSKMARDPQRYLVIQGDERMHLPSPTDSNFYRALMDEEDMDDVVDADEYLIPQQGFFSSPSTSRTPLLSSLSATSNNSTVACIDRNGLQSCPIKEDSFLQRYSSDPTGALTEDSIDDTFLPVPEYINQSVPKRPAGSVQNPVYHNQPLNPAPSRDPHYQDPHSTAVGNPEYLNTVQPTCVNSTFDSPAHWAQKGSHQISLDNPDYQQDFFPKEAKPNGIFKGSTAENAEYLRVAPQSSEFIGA
RET, sequence (P07949 29-1114): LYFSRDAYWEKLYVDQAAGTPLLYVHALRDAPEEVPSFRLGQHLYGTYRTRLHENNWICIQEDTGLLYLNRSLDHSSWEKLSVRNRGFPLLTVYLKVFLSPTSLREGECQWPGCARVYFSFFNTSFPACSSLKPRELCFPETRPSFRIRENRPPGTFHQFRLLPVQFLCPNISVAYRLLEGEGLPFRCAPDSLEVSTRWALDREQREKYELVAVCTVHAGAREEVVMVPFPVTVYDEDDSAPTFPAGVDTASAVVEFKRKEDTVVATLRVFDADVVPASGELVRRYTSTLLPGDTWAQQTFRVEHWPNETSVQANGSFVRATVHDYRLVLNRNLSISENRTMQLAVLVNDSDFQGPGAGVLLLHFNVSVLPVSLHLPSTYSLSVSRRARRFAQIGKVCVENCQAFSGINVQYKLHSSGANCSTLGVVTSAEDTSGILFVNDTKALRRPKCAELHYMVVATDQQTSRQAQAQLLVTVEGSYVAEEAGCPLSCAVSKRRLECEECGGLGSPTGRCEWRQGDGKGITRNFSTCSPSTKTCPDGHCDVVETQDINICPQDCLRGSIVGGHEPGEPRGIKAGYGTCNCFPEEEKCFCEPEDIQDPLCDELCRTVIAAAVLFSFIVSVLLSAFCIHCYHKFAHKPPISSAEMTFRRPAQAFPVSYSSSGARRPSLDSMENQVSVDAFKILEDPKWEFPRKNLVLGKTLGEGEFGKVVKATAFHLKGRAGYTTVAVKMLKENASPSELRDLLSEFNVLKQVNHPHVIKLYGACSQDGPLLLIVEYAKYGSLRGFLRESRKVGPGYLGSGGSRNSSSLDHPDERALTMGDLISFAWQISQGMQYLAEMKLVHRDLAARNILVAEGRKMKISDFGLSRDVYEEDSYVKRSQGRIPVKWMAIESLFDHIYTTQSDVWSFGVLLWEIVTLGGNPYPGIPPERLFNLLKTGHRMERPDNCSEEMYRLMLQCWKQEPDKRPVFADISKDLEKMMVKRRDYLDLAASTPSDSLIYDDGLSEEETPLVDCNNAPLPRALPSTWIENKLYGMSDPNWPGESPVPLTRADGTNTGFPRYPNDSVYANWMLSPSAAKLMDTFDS
CAMK2D, sequence (Q13557 whole entry): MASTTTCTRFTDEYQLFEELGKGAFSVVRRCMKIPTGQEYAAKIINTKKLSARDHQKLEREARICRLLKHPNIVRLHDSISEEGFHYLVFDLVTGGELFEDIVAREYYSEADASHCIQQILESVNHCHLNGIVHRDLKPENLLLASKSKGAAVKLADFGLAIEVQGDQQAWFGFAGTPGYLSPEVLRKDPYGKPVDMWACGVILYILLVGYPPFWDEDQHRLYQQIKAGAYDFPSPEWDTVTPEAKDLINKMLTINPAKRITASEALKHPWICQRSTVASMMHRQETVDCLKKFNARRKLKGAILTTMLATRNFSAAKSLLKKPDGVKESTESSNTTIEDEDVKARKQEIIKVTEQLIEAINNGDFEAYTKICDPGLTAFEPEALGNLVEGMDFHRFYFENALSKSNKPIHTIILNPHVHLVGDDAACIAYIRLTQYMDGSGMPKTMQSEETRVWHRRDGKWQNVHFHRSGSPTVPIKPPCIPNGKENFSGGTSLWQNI
SGK2, sequence (Q9HBY8 whole entry, species assumed): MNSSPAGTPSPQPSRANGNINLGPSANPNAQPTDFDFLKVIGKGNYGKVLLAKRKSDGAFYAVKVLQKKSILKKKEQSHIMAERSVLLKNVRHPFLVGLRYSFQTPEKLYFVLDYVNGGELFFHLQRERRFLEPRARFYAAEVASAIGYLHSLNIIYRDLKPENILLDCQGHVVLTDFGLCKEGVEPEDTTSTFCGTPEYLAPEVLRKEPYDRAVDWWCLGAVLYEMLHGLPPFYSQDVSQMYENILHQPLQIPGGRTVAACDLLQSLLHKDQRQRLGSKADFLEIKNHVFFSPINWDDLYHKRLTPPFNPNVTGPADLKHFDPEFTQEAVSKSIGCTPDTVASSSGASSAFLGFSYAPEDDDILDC

Consider `C[C@H]1CN(c2c(NC(=O)c3ccc(F)c(-c4c(F)cccc4F)n3)cnc3c2CC[C@H]3O)C[C@@H](N)[C@@H]1O.O=P(O)(O)O` [INCB053914, N-((R)-4-((3R,4R,5S)-3-amino-4-hydroxy-5-methylpiperidin-1-yl)-7-hydroxy-6,7-dihydro-5H-cyclopenta[b]pyridin-3-yl)-6-(2,6-difluorophenyl)-5-fluoropicolinamide phosphate], for which the PIM2 expression result in assay [1] is “increased PIM2 expression”. Besides, the IC50 at CHEK2, against SYK, against RET, against LOK, against CHEK1 and against EGFR was above 20 µM each time. In addition, the IC50 in [2] is 0.027 µM; in [3], 0.004 µM; against SGK2, above 20 µM; at AURKA, above 20 µM; against CAMK2D it was above 20 µM. Besides, in the assay with INA-6 cells, the “pSTAT3(Y705) levels” value is reported as “negligible effects”. For the same molecule, in assay [4], the “selectivity against a panel of more than 50 kinases” value is reported as above 475 fold.
